{
  "source": "patent US6759207B2",
  "about": "“Fluorogenic or fluorescent reporter molecules and their applications for whole-cell fluorescence screening assays for caspases and other enzymes and the use thereof” (Cytovia, Inc., priority 1997, dated 2004)",
  "key": {"HL-60 cells [1]": {"system": "HL-60 cells", "test": "Staining of apoptotic HL-60 cells by caspase-3 substrate (whole-cell assay, microscopy)", "format": "cell-based", "method": "(§1) The ability of N-Ac-DEVD-N′-octyloxycarbonyl-R110 SEQ ID NO:5 to detect caspase activation in intact cells was tested using apoptotic HL-60 and Jurkat cells. These whole-cell assays were carried out in two stages: 1) induction of apoptosis; 2) incubation with the substrate. For HL-60 cells, apoptosis was induced by treatment with 10 μg/ml vinblastine for 4 hours. Control samples were treated with DMSO. For Jurkat cells, apoptosis was induced by treatment with 500 ng/ml agonistic antiFas antibody for 2 hours. Control samples were treated with PBS. Following apoptosis induction, the cells were incubated with 50 μM N-Ac-DEVD-N′-octyloxycarbonyl-R110 SEQ ID NO:5 in caspase assay buffer (40 mM PIPES, pH 7.4; 100 mM NaCl; 10% sucrose; 1 mM EDTA; 10 mM DTT). The cells were than transferred to a glass microslide and viewed by epifluorescent illumination on a Nikon inverted microscope."}, "[2]": {"biological_target": "T1, recombinant human caspase-3 (Homo sapiens, UniProt P42574)", "T1 sequence (P42574 29-175 limits assumed)": "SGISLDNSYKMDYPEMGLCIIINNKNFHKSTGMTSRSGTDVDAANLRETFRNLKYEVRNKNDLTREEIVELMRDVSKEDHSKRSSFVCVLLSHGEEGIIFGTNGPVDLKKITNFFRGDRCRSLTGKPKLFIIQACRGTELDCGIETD", "T1 sequence (P42574 176-277 limits assumed)": "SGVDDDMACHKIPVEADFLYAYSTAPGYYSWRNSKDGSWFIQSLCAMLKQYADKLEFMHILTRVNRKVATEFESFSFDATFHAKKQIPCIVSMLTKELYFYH", "test": "Cleavage of caspase-3 substrates by recombinant human caspase-3", "format": "biochemical", "settings": "for Cleavage by Caspase-3: 10 μM or 50 μM substrate, 37° C.", "method": "(§2) The caspase substrates were assayed by recombinant caspase-3 and by lysates prepared from apoptotic HL-60 cells. The assays were carried out at 37° C. in 96-well plates in a 100 μL incubation containing 30 μL of caspase-3 preparation or cell lysate, 10 μM or 50 μM of the substrate, and caspase assay buffer (40 mM 1,4-piperazinebis(ethansulfonic acid) (PIPES, Aldrich Chemical Company) pH 7.2; 100 mM NaCl; 10% sucrose; 0.1% CHAPS; 1 mM EDTA; 10 mM DTT). At the end of the incubation period, the fluorescence was measured on a Bio-Tek FL500 fluorescence microplate reader using excitation and emission wavelengths of 485 and 530 nm, respectively. Two different controls were run: 1) an enzyme blank consisting of samples containing substrate, but without enzyme or cell lysate; 2) an inhibitor control, consisting of samples which contained the caspase inhibitor, Ac-DEVD-CHO (f.c., 10 μM)."}, "Jurkat cells [3]": {"system": "Jurkat cells", "test": "Staining of apoptotic Jurkat cells by caspase-3 substrate (whole-cell assay, microscopy)", "format": "cell-based", "settings": "50 μM substrate", "method": "as §1"}, "Jurkat cells [4]": {"system": "Jurkat cells", "test": "Cleavage of caspase-3 substrate by whole apoptotic Jurkat cells (plate reader)", "format": "cell-based", "method": "In order to quantitate the cleavage of N-Ac-[…]-N-octyloxycarbonyl-R110 SEQ ID NO:5 by whole cells, an assay was performed in which the fluorescent signal generated from this substrate by apoptotic Jurkat cells was measured in a spectrofluorometric plate reader. Jurkat cells were incubated for varying times in 96-well plates with 500 ng/ml antiFas antibody to induce apoptosis. Control cells were incubated with PBS. At the end of the treatment period, the cells were harvested, centrifuged in 1.5 ml tubes and resuspended in 25 μL of medium containing 1% FBS. 25 μL of caspase buffer containing 50 μM N-Ac-DEVD-N′-octyloxycarbonyl R110 SEQ ID NO:5 was added, and the cells were incubated for one hour. At the end of the incubation period, three 5 μL aliquots from each time point were placed in 96-well plates and the fluorescence was measured at excitation/emission wavelength of 485/530 nm. […] However, cells treated with antiFas gave a detectable fluorescent signal at about one hour after apoptosis induction, and the signal continued to increase up to the 2 hour timepoint, with a signal to background ratio of about 7."}, "[5]": {"system": "apoptotic HL-60 cell lysates", "test": "Cleavage of caspase-3 substrates by apoptotic HL-60 cell lysates", "format": "biochemical", "settings": "10 μM or 50 μM substrate, 37° C., vinblastine treated HL-60 cell lysates", "method": "as §2"}, "HL-60 cells [6]": {"system": "HL-60 cells", "test": "Uptake and cleavage of aminopeptidase substrate by HL-60 cells", "format": "cell-based", "settings": "10 μM substrate, 3 hours at 37° C.; for fluorescence of cells under microscope: FIGS. 7A-B; for Counts/μg protein: excitation 485 nm, emission 525 nm", "method": "HL-60 cells were placed in 5 ml of Iscove's medium (without serum or phenol-red) containing 10 μM N-G-N′-octyloxycarbonyl-R110 or 10 μM N-Z-G-N-octyloxycarbonyl-R110. Three million HL-60 cells were incubated for 3 hours at 37° C. in a CO2 incubator, recovered by centrifugation, and washed in 50 μL of ice-cold medium. The cells were re-centrifuged and the final pellet was resuspended in 50 μL of fresh medium. Aliquots of each cell suspension were placed in a microtiter 96-well plate and read on a Wallac 1420 microplate reader with excitation wavelength at 485 nm, emission wavelength at 525 nm. Aliquots of each cell suspension were also placed on microslides and viewed on a Nikon inverted microscope with epifluorescent illumination. […] There was no signal from the cells incubated with 10 μM N-Z-G-N′-octyloxycarbonyl-R110."}, "[7]": {"system": "HL-60 cell lysates (aminopeptidases)", "test": "Cleavage of aminopeptidase substrate by HL-60 cell lysates (microtiter plate assay)", "format": "biochemical", "settings": "FIG. 6", "method": "Aminopeptidases are present in many cells and sequentially remove unblocked amino acid residues from peptides, starting from the N-terminus. Peptides with blocked amino termini are not cleaved. HL-60 lysates were prepared by homogenizing HL-60 cells in caspase buffer, and the ability of these lysates to cleave N-Z-G-N′-octyloxycarbonyl R110 and N-G-N′-octyloxycarbonyl-R110 was tested in a microtiter plate assay."}, "[8]": {"test": "Fluorescence and stability of N-acetyl-Rhodamine 110 compared to Rhodamine 110 (fluorometric assay)", "format": "physicochemical", "method": "The activities of Rhodamine 110 and N-acetyl-Rhodamine 110 as fluorescent moieties for synthetic substrates were measured in a fluorometric assay. The fluorescent signal is read in a spectrofluorometer or in a fluorometric microtiter plate reader at excitation wavelength of 485 and emission 530. Using this assay, the relative fluorescent values were determined for the two fluorescent moieties.\nFluorescence was measured using the following buffer conditions: 100 mM HEPES pH 7.5, with 10% sucrose, 1% CHAPS, 5 mM glutathione, and 1-200 nM test compound. The assay for stability was typically carried out at 37° C. for 2 days."}, "[9]": {"settings": "listed as N-Z-EVD-N′-Ethoxycarbonyl-R110"}},
  "data": [
    {"smiles": "CC(=O)N[C@@H](CC(=O)O)C(=O)N[C@@H](CCC(=O)O)C(=O)N[C@H](C(=O)N[C@H](C=O)CC(=O)O)C(C)C", "note": "[Ac-DEVD-CHO, reference compound]", "values": [
      {"measurement": "fluorescent signal of vinblastine-treated HL-60 cells with inhibitor added during the assay stage", "setting": "HL-60 cells [1]; 50 μM Ac-DEVD-CHO, substrate 50 μM N-Ac-DEVD-N′-octyloxycarbonyl-R110", "value": "almost no fluorescent signal"}
    ]},
    {"smiles": "CCCCCCCCOC(=O)Nc1ccc2c(c1)Oc1cc(NC(=O)[C@H](CC(=O)O)NC(=O)[C@@H](NC(=O)[C@H](CCC(=O)O)NC(=O)[C@H](CC(=O)O)NC(C)=O)C(C)C)ccc1C21OC(=O)c2ccccc21", "note": "(stereo partly drawn) [N-Ac-DEVD-N′-octyloxycarbonyl-R110, N-(Ac-Asp-Glu-Val-Asp)-N′-octyloxycarbonyl-Rhodamine 110]", "values": [
      {"measurement": "staining of vinblastine-treated HL-60 cells", "setting": "HL-60 cells [1]; 50 μM substrate, apoptosis induced by 10 μg/ml vinblastine for 4 hours", "value": "intensely stained"},
      {"measurement": "staining of DMSO-treated HL-60 cells", "setting": "HL-60 cells [1]; 50 μM substrate, control cells", "value": "some staining"},
      {"measurement": "Cleavage by Caspase-3", "setting": "[2]", "value": "Good"},
      {"measurement": "staining of antiFas-treated Jurkat cells", "setting": "Jurkat cells [3]; 500 ng/ml agonistic antiFas antibody for 2 hours", "value": "intense staining"},
      {"measurement": "staining of control Jurkat cells", "setting": "Jurkat cells [3]; PBS-treated", "value": "only light staining"},
      {"measurement": "signal to background ratio", "setting": "Jurkat cells [4]; antiFas-treated Jurkat cells, 2 hour timepoint, 485/530 nm", "value": "about 7"},
      {"measurement": "fluorescent signal of PBS-treated cells", "setting": "Jurkat cells [4]; control Jurkat cells", "value": "small fluorescent signal which did not increase"},
      {"measurement": "Cleavage by Apoptotic Lysates", "setting": "[5]", "value": "Good"}
    ]},
    {"smiles": "Br.CCCCCCCCOC(=O)Nc1ccc2c(c1)Oc1cc(NC(=O)CN)ccc1C21OC(=O)c2ccccc21", "note": "(stereo not drawn) [N-G-N′-octyloxycarbonyl-R110, N-Gly-N′-octyloxycarbonyl-Rhodamine-110 HBr]", "values": [
      {"measurement": "signal from cells (microplate reader)", "setting": "HL-60 cells [6]", "value": "showed signal"},
      {"measurement": "fluorescence of cells under microscope", "setting": "HL-60 cells [6]", "value": "showed fluorescence under microscope"},
      {"measurement": "Counts/μg protein", "setting": "HL-60 cells [6]", "value": 12.98, "unit": "Counts/μg protein"},
      {"measurement": "cleavage by HL-60 cell lysates", "setting": "[7]", "value": "readily cleaved"}
    ]},
    {"smiles": "CCOC(=O)Nc1ccc2c(c1)Oc1cc(NC(=O)C(CC(=O)O)NC(=O)C(NC(=O)C(CCC(=O)O)NC(=O)OCc3ccccc3)C(C)C)ccc1C21OC(=O)c2ccccc21", "note": "(stereo not drawn) [N-Z-EVD-N′-ethoxycarbonyl-R110]", "values": [
      {"measurement": "Cleavage by Caspase-3", "setting": "[2]", "value": "Fair"},
      {"measurement": "Cleavage by Caspase-3", "setting": "[2]; [9]", "value": "cleaved efficiently"},
      {"measurement": "Cleavage by Apoptotic Lysates", "setting": "[5]", "value": "Fair"},
      {"measurement": "Cleavage by Apoptotic Lysates", "setting": "[5]; [9]", "value": "cleaved efficiently"}
    ]},
    {"smiles": "CCCCCCCCOC(=O)Nc1ccc2c(c1)Oc1cc(NC(=O)CNC(=O)OCc3ccccc3)ccc1C21OC(=O)c2ccccc21", "note": "(stereo not drawn) [N-Z-G-N′-octyloxycarbonyl-R110, N-[Z-Gly]-N′-octyloxycarbonyl-Rhodamine-110]", "values": [
      {"measurement": "signal from cells (microplate reader)", "setting": "HL-60 cells [6]", "value": "no signal"},
      {"measurement": "fluorescence of cells under microscope", "setting": "HL-60 cells [6]", "value": "no fluorescence signal was observed"},
      {"measurement": "Counts/μg protein", "setting": "HL-60 cells [6]", "value": 0, "unit": "Counts/μg protein"},
      {"measurement": "cleavage by HL-60 cell lysates", "setting": "[7]", "value": "no signal was generated"}
    ]},
    {"smiles": "CCOC(=O)Nc1ccc2c(c1)Oc1cc(NC(=O)[C@H](CC(=O)O)NC(=O)[C@@H](NC(=O)OCc3ccccc3)C(C)C)ccc1C21OC(=O)c2ccccc21", "note": "(stereo partly drawn) [N-Z-VD-N′-ethoxycarbonyl-R110, N-(Cbz-Val-Asp)-N′-Ethoxycarbonyl-Rhodamine 110]", "values": [
      {"measurement": "Cleavage by Caspase-3", "setting": "[2]", "value": "the signal was low and Poor"},
      {"measurement": "amount of recombinant caspase-3 required for cleavage relative to tri- and tetrapeptide substrates", "setting": "[2]; FIG. 2A", "value": 50, "unit": "fold"},
      {"measurement": "Cleavage by Apoptotic Lysates", "setting": "[5]", "value": "Poor"}
    ]},
    {"smiles": "CC(=O)Nc1ccc2c(c1)Oc1cc(N)ccc1C21OC(=O)c2ccccc21", "note": "(stereo not drawn) [N-acetyl Rhodamine 110, N-Acetyl-Rhodamine 110]", "values": [
      {"measurement": "stability and efficiency as fluorescent indicator", "setting": "[8]; 37° C. for 2 days", "value": "stable and efficient fluorescent indicator"},
      {"measurement": "ratio of fluorescent signal (Rhodamine 110/N-acetyl Rhodamine 110)", "setting": "[8]; after two days incubation at 37° C.", "value": 10.1},
      {"measurement": "ratio of fluorescent signal (Rhodamine 110/N-acetyl Rhodamine 110)", "setting": "[8]; time zero, excitation 485, emission 530, HEPES pH 7.5 buffer", "value": 10.2}
    ]}
  ]
}
